Read-outs that look alike come from different tables or passages of the source.
How the values were obtained:
[1] = system: HDAC; test: HDAC fluorimetric enzyme assay (Biomol AK-500, HeLa nuclear extract); assay type: biochemical
Method: HDAC inhibitors were screened using an HDAC fluorimetric assay kit (AK-500, Biomol, Plymouth Meeting, Pa.).
Each assay was setup as follows: Defrosted all kit components and kept on ice until use. […] Prepared dilutions of Trichostatin A (TSA, positive control) and tested compounds in assay buffer (5× of final concentration). Diluted Fluor de Lys™ Substrate in assay buffer to 100 uM (50 fold=2× final). Diluted Fluor de Lys™ developer concentrate 20-fold (e.g. 50 μl plus 950 μl Assay Buffer) in cold assay buffer. Second, diluted the 0.2 mM Trichostatin A 100-fold in the 1× Developer (e.g. 10 μl in 1 ml; final Trichostatin A concentration in the 1× Developer=2 μM; final concentration after addition to HDAC/Substrate reaction=1 μM). Added Assay buffer, diluted trichostatin A or test inhibitor to appropriate wells of the microtiter plate. Added diluted HeLa extract or other HDAC sample to all wells except for negative controls.

[2] = biological target: T1, human EGFR (His672-Ala1210) (Homo sapiens, UniProt P00533); test: HTScan EGF Receptor Kinase Assay; assay type: biochemical; conditions: for activity in EFGR enzyme assay compared with erlotinib: FIG. 1
T1 construct: human EGFR (His672-Ala1210); GST (N); purchased Cell Signaling Technologies; host or cells: baculovirus expression system
Method: The ability of compounds to inhibit receptor kinase (EGFR) activity was assayed using HTSCAN™ EGF Receptor Kinase Assay Kits (Cell Signaling Technologies, Danvers, Mass.). […] The protein was purified by one-step affinity chromatography using glutathione-agarose.
Immediately transfer enzyme from −80° C. to ice. Allowed enzyme to thaw on ice. […] Returned immediately to ice. […] Incubated reaction plate at room temperature for 30 minutes. […] Added 100 μl/well primary antibody. Incubated at room temperature for 60 minutes. […] Added 100 μl/well diluted antibody. Incubated at room temperature for 30 minutes. […] Incubated at room temperature for 5 minutes.

[3] = biological target: VEGFR (Homo sapiens, UniProt P35968); test: VEGFR assay (Table B); assay type: biochemical
[4] = system: HDAC in MDA-MB-468 breast cancer cell line; test: Inhibition of HDAC in cells (Ac-H4, Ac-H3 accumulation), FIG. 2; assay type: cell-based; conditions: MDA-MB-468, FIG. 2
[5] = system: EGFR in MDA-MB-468 breast cancer cell line; test: Inhibition of EGFR phosphorylation in cells, FIG. 2; assay type: cell-based; conditions: MDA-MB-468, FIG. 2
Method: (b) An In Vitro Assay which Determines the Ability a Test Compound to Inhibit the EGF-Stimulated EGFR Phosphorylation.
Allowed A431 cell growth in a T75 flask using standard tissue culture procedures until cells reach near confluency (˜1.5×10^7) cells; D-MEM, 10% FBS). Under sterile conditions dispensed 100 μl of the cell suspension per well in 96-well microplates (x cells plated per well). Incubated cells and monitor cell density until confluency is achieved with well-to-well consistency; approximately three days. Removed complete media from plate wells by aspiration or manual displacement. Replaced media with 50 μl of pre-warmed serum free media per well and incubated 4 to 16 hours. Made two fold serial dilutions of inhibitor using pre-warmed D-MEM so that the final concentration of inhibitor range from 10 μM to […]. Removed media from A431 cell plate. Added 100 μl of serial diluted inhibitor into cells and incubate 1 to 2 hours. Removed inhibitor from plate wells by aspiration or manual displacement. Added either serum free media for resting cells (mock) or serum free media with 100 ng/ml EGF. Used 100 μl of resting/activation media per well. Allowed incubation at 37° C. for 7.5 minutes. Removed activation or stimulation media manually or by aspiration. Immediately fixed cells with 4% formaldehyde in 1×PBS. […]

[6] = system: A549 NSCLC Xenograft; test: A549 NSCLC xenograft model; assay type: in vivo, mice; conditions: FIG. 11A, 11B
Method: (§1) A representative protocol for the in vivo experiment is as followed:
(§2) 1-10×10^6 human cancer cells were implanted subcutaneously to the athymic (nu/nu) mice. When the tumors reached about 100 mm^3 in volume, the mice were treated with the compound by tail vein infusion. Routinely 5 groups (8-12 mice per group) are needed for a typical efficacy study, including one negative control, one positive control, and three testing groups for 3 dose levels of the same compound. Usually a 7-7-5 (on-off-on) regimen was used for one typical study. The tumor size was measured with an electronic caliper and body weight measured with a scale twice weekly. The tumors were removed from euthanized mice at the end of the study. One half of each tumor was frozen in dry ice and stored at −80° C. for PK or Western blot analysis. The other half was fixed with formalin. The fixed tissues were processed, embedded in paraffin and sectioned for immunohistochemistry staining

[7] = system: HPAC pancreatic cancer cells; test: HPAC pancreatic cancer xenograft; assay type: in vivo, mice; conditions: 120 mg/kg in 30% CAPTISOL (iv/ip) daily vs 50 mg/kg erlotinib (po); FIG. 12A
Method: as §1, §2

[8] = Pharmacokinetic study in rats (plasma); assay type: in vivo; conditions: 20 and 60 mg/kg iv, hydrochloride salt in 30% CAPTISOL, FIG. 14
Method: Compound was administered via an intravenous (iv) infusion.
Rat: 20 mg/kg for 5 min i.v. infusion
Plasma samples were prepared by protein precipitation. An internal standard was added into plasma samples. […] The supernatant was then injected onto LC/MS/MS.
Samples were compared to standards made in plasma. These standards were prepared by serial dilution.

[9] = system: cancer cell lines; test: Anti-proliferative activity in various cancer cell lines (general statements, FIG. 3); assay type: cell-based; conditions: lung, breast, prostate, colon, pancreas cell lines
Method: Cell Proliferation Assay:
Cancer cell lines were plated at 5,000 to 10,000 per well in 96-well flatted bottomed plates with various concentration of compounds. The cells were incubated with compounds for 72 hours in the presence of 0.5% of fetal bovine serum. Growth inhibition was accessed by adenosine triphosphate (ATP) content assay using Perkin Elmer ATPlite kit. ATPlite is an ATP monitoring system based on firefly luciferase. Briefly, 25 μl of mammalian cell lysis solution was added to 50 μl of phenol red-free culture medium per well to lyse the cells and stabilize the ATP. 25 μl of substrate solution was then added to the well and subsequently the luminescence was measured.

[10] = Pharmacokinetic study in mice (plasma, lung, colon); conditions: salt in 30% CAPTISOL
Method: (§3) Samples were compared to standards made in plasma. These standards were prepared by serial dilution. An internal standard was added into the plasma with standard.
(§4) Tissues were homogenized in 0.8 ml water.

[11] = remark: listed apart in the source
Text: B. Filtration of the Solution
C. Preparation of a Lyophilisate

[12] = mouse, in vivo
Method: as §3, §4

Chain of VEGFR (P35968 20-1356): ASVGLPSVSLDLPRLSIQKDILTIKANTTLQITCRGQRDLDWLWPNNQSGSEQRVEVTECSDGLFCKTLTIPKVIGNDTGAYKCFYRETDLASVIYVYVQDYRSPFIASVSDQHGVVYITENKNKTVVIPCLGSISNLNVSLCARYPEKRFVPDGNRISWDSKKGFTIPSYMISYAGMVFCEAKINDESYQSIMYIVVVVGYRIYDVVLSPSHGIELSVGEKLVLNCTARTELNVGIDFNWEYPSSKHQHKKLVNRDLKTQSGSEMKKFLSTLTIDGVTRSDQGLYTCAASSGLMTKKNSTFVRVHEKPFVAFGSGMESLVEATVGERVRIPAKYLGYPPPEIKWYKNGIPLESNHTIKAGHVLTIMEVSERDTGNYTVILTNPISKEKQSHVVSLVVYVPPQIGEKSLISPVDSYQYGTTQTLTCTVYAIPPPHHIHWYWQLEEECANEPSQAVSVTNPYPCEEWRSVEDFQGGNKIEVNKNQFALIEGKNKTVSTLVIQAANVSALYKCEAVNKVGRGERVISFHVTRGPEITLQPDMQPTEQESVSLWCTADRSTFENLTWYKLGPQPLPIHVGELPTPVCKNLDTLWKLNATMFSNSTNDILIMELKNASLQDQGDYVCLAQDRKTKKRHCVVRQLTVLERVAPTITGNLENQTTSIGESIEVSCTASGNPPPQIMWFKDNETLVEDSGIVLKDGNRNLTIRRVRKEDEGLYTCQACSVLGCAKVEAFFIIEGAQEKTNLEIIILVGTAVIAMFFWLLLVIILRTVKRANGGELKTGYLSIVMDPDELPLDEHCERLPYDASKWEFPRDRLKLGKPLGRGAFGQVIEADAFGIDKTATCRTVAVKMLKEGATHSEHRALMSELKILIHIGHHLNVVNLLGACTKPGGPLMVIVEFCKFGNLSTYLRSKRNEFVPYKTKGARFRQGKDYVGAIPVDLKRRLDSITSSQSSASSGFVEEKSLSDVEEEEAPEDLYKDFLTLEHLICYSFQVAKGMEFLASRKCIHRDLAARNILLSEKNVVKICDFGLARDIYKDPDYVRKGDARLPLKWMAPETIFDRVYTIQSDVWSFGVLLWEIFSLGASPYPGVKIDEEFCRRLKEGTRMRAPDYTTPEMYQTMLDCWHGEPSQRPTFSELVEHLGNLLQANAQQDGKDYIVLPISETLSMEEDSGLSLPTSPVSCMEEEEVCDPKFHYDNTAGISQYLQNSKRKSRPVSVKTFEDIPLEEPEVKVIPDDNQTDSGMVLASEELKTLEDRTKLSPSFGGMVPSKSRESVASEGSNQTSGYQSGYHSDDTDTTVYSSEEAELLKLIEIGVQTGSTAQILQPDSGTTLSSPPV
T1 sequence (P00533 672-1210): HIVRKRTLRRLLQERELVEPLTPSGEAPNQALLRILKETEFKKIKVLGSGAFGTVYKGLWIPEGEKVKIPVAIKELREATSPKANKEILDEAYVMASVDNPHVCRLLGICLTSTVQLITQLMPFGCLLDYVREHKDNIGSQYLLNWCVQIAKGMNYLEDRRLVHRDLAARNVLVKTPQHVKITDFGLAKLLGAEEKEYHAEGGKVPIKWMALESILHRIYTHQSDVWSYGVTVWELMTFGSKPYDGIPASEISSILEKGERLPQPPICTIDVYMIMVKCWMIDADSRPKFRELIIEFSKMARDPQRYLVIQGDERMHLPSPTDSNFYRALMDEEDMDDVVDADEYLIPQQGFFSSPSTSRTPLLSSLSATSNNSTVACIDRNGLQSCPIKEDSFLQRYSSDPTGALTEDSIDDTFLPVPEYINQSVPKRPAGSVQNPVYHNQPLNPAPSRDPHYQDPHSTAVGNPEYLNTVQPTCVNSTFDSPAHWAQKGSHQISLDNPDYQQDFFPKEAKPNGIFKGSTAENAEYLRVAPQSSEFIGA

Molecule: COc1cc2ncnc(Nc3ccc(F)c(Cl)c3)c2cc1OCCCCCCC(=O)NO [Compound 6, 7-(4-(3-Chloro-4-fluorophenylamino)-7-methoxyquinazolin-6-yloxy)-N-hydroxyheptanamide]
- activity in HDAC enzyme assay compared with SAHA ([1]; FIG. 1): more active than erlotinib and SAHA
- IC50 [2]: < 100 nM
- activity in EFGR enzyme assay compared with erlotinib [2]: more active than erlotinib and SAHA
- IC50 [3]: 100 to 1000 nM

Molecule: C#Cc1cccc(Nc2ncnc3cc(OC)c(OCCCCCCC(=O)NO)cc23)c1 [Compound 12, 7-(4-(3-ethynylphenylamino)-7-methoxyquinazolin-6-yloxy)-N-hydroxyheptanamide]
- activity in EFGR enzyme assay compared with erlotinib [2]: more active than erlotinib and SAHA
- histone acetylation (Ac-H3/Ac-H4) compared with SAHA [4]: improvement in inhibition of histone acetylation
- inhibition of EGFR phosphorylation compared with Erlotinib [5]: improvement in inhibition of histone acetylation and EGFR phosphorylation
- effect on tumor growth / tumor size [6]: attenuated tumor growth
- attenuation of tumor growth [7]: greater attenuation of tumor growth than either erlotinib (po) or vehicle
- dose proportionality of plasma concentration [8]: proportional to the dose
- anti-proliferative potency compared with SAHA, Erlotinib and their combination [9]: responded better to compound 12 than a combination of erlotinib and SAHA

Molecule: COc1cc2ncnc(N[C@H](C)c3ccccc3)c2cc1OCCCCCCC(=O)NO [Compound 79, (R)—N-hydroxy-7-(7-methoxy-4-(1-phenylethylamino)quinazolin-6-yloxy)heptanamide]
- IC50 [3]: > 10000 nM

Molecule: COc1cc2ncnc(NCc3ccccc3)c2cc1OCCCCCCC(=O)NO [Compound 85, 7-(4-(Benzylamino)-7-methoxyquinazolin-6-yloxy)-N-hydroxyheptanamide]
- IC50 [2]: < 100 nM
- IC50 [3]: 1000 to 10000 nM

Molecule: C#Cc1cccc(Nc2ncnc3cc(OC)c(OCCCCCCC(=O)NOC)cc23)c1 [Compound 95, 7-(4-(3-ethynylphenylamino)-7-methoxyquinazolin-6-yloxy)-N-methoxyheptanamide]
- melting point: 195.8 to 197 °C

Molecule: COc1cc2ncnc(Nc3ccc(F)c(Cl)c3)c2cc1SCCCCC(=O)NO [Compound 151]
- IC50 [1]: < 100 nM

Molecule: COc1cc2ncnc(Nc3ccc(F)c(Cl)c3)c2cc1SCCCCCCC(=O)NO [Compound 155]
- IC50 [1]: < 100 nM

Molecule: C#Cc1cccc(Nc2ncnc3cc(OCCOC)c(OCCOC)cc23)c1 [Erlotinib, reference compound]
- effect on tumor growth / tumor size [6]: did not significantly affect tumor size

Molecule: Citric Acid
- IV Tissue [10]: Low

Molecule: Sodium
- Chemical stability in diluted solution [11]: >12 h
- Dilution with D5W [11]: >10x
- Solubility [11]: 7500 µg/mL
- pH ([11]; salt in 30% CAPTISOL): 10-11
- IV Tissue [12]: High

Molecule: Tartaric Acid
- IV Tissue [12]: High
